Experiments:
[1] = tested on: Human acute myelocytic leukemia cells HL-60; experiment: Evaluation of anticancer property 1: MTT viable cell assay (modified Mosmann method); type: cell-based; details: HL-60 cells, 24 hours culture, average of assays
Procedure: Human acute myelocytic leukemia cells cancer cells HL-60 was used as cancer cells. The cells were cultured in Rosewell Park Memorial Institute medium (RPMI 1640) supplemented with 10% fetal bovine serum, 1% antibiotic, and an antifungal agent in an atmosphere of 5% carbon dioxide in a moist incubator at 37° C.
Cells were washed with PBS. After the number of cells was determined, a suspension (1×10^6 cells/mL) was prepared with the same medium. The suspension was seeded in a sterile 96-well microplate at a density of 50,000 cells/well.
The wells were further cultured in the incubator for 24 hours.
The number of viable cells was determined by a modified Mosmann method (T. Mosmann, J. Immunnol. Method (1983)65, 55-63). […] The wells were cultured for another 3 hours under the same conditions. Formazan crystals formed by the enzyme activity of mitochondria in the cells were dissolved in 0.04 mol/HCl/isopropyl alcohol. The absorbance of each well was measured at 595 nm with a microplate reader (Bio-Rad 550). To remove the background, the absorbance of each well was measured at 630 nm. The absorbance at 630 nm was subtracted from the actual measured value. This is determined to be the number of viable cells.

[2] = tested on: HCS-4 (cells derived from human tongue cancer); experiment: Evaluation of anticancer property 2: MTT assay, tongue cancer cells; type: cell-based; details: HCS-4, RPMI 1640+10% FBS, assayed as in Evaluation 1; read-out: IC50, Cell derived from human tongue cancer
Procedure: (§1) The number of viable cells was determined by a modified Mosmann method (T. Mosmann, J. Immunnol. Method (1983)65, 55-63). That is, a solution of a tetrazolium salt (3,[4,5-dimethylthiazole-2-yl]-2,5-diphenyltetrazolium bromide, MTT) was added thereto. The wells were cultured for another 3 hours under the same conditions. Formazan crystals formed by the enzyme activity of mitochondria in the cells were dissolved in 0.04 mol/HCl/isopropyl alcohol. The absorbance of each well was measured at 595 nm with a microplate reader (Bio-Rad 550). To remove the background, the absorbance of each well was measured at 630 nm. The absorbance at 630 nm was subtracted from the actual measured value. This is determined to be the number of viable cells. […] For the values shown in Table 3, each of Compounds 1 to 3 was assayed three times, and the average value was shown.
(§2) Compounds (2) and (3) obtained in Examples 2 and 3 were assayed as in Evaluation 1 with HCS-4 (cells derived from human tongue cancer, medium: RPMI 1640+10% FBS), COLO205 (cells derived from human colon, medium: RPMI-1640+10% FBS), and SH-10-TC (cells derived from human gastric cancer, medium: RPMI-1640+10% FBS).

[3] = tested on: COLO205 (cells derived from human colon); experiment: Evaluation of anticancer property 2: MTT assay, colon cells; type: cell-based; details: COLO205, RPMI-1640+10% FBS, assayed as in Evaluation 1; read-out: IC50, Cell derived from human colon
Procedure: as §1, §2

[4] = tested on: SH-10-TC (cells derived from human gastric cancer); experiment: Evaluation of anticancer property 2: MTT assay, gastric cancer cells; type: cell-based; details: RPMI-1640+10% FBS, assayed as in Evaluation 1, read-out: IC50, Cell derived from human gastrict cancer
Procedure: as §1, §2

[5] = tested on: female Sprauge-Dawley SPF rats (CrJ:CD (SD)); experiment: Toxicity test by single oral administration to rats; type: in vivo, rat; details: for LD50: rats, single oral dose in corn oil, observed 14 days, from survival rate
From the text: After female Sprauge-Dawley SPF rats (CrJ:CD (SD)) were quarantined and acclimated for about a week, healthy 8-week-old rats were selected in groups of five rats.

| Substance | IC50 [1] [nM] | IC50 [2] [nM] | IC50 [3] [nM] | IC50 [4] [nM] | LD50 [5] | Death of rats, 100 mg/kg group ([5]; single oral dose 100 mg/kg, five rats, death at 5 days after administration) | Death of rats, 300 mg/kg group ([5]; single oral dose 300 mg/kg, five rats, deaths by day 2) | Death of rats, 20 and 50 mg/kg groups ([5]; single oral dose 20 and 50 mg/kg, five rats per group) |
| --- | --- | --- | --- | --- | --- | --- | --- | --- |
| bis((R,R)-1,2-bis(tert-butyl(2-pyridyl)phosphino)ethane)gold(I) chloride [Compound (3)] | 3580 | 3500 | 1500 | 900 | 300 mg/kg or more |  |  |  |
| bis(meso-1,2-bis(tert-butyl(2-pyridyl)phosphino)ethane)gold(I) chloride [Compound (2)] | 5130 | 1400 | 2200 | 1200 | 300 mg/kg or more |  |  |  |
| bis(rac-1,2-bis(tert-butyl(2-pyridyl)phosphino)ethane)gold(I) chloride [Compound (1)] | 4510 |  |  |  | 300 mg/kg or more |  |  |  |
| bis[1,2-bis(phenyl(2-pyridyl)phosphino)ethane]gold(I) chloride [Compound (5), reference compound] | 3560 |  |  |  |  | one rat died | three rats died | no death was observed |

Reference: US8106186B2, “Transition metal phosphine complex, method for producing same, and anticancer agent containing transition metal phospine complex” (Nippon Chemical Industrial Co., Ltd., priority 2005, dated 2012)
